Measured values from patent publication US3962449A, “Cardioactive bispidones and bispidines” (priority 1974, dated 1976).
Like-named read-outs stand apart in the source and are kept apart here.

How the values were obtained:
[1] = tested on: experimentally induced heart rhythm disturbances (aconitine) in rats; experiment: Aconitine-induced heart rhythm disturbances in rats, intravenous pre-treatment; format: in vivo, rat; conditions: for ED25 / ED50: Rattus norvegicus, iv; for occurrence of heart rhythm disturbances on pre-treatment: aconitine continuously infused intravenously
From the text: If rats are continuously infused intravenously with aconitine, then serious disturbances of the cardiac rhythm such as extrasystole, ventricular tachycardia, and ventricular flutter, which finally lead to the death of the experimental animals, can be observed on an electrocardiogram. […] This experimental arrhythmic model is checked by means of clinically tested standard therapeutic compounds as to its reliability and is well suited for characterizing antiarrhythmical compounds in experiments on animals [cf. for example, Bianci et al., Arzneim.-Forsch. 18, 845- 850 (1968); Haas und Busch, Arzneim.-Forsch. 18, 401- 407 (1968); Haas et al., Arzneim.-Forsch.21, 1392- 1399 (1971); Marmo, Naunyn-Schmiedeberg's Arch. Pharmakol. 269, 231- 247 (1971); and Strubelt et al., Naunyn-Schmiedeberg's Arch. Pharmakol. 271, 346- 360 (1971.]
The ED25 or ED50 are the intravenous dosages in mg/kg which allow an increase in administered aconitine doses, relative to the control, by 25 or 50%, respectively, before the occurrence of extrasystoles, ventricular tachycardia, and ventricular flutter.

[2] = difference between doses producing an anti-arrhythmic effect and a negative inotropic effect; cited from earlier work
[3] = tested on: left auricle of the heart of guinea pigs; experiment: Functional refractory period and contractility of the isolated left auricle (paired electrical stimulation, adapted from Govier); format: cell-based, guinea pig; design: Anti-arrhythmic effect (Refractory period extension) ED25 / Inotropic effect (Contraction force lowering) ED25: unit not given here; conditions: for Anti-arrhythmic effect (Refractory period extension) ED25: effective dose which extends the refractory period by 25%; for Anti-arrhythmic effect (Refractory period extension) ED25 / Inotropic effect (Contraction force lowering) ED25: guinea pig left auricle, up to 30 minutes; for Inotropic effect (Contraction force lowering) ED25: effective dose which lowers the contractional force by 25%; for Therapeutic Breadth (III/II): ratio of inotropic ED25 to anti-arrhythmic ED25
From the text: The experimental procedure utilized paired electrical stimulation in an adaptation of the method of […]. Pharmacol. Exp. […] In this model, the numerous known anti-arrhythmical preparations of differing structure and point of therapeutic attack all show an prolongation of the functional refractory period. The experiment additionally permits a study of the effects of different substances on the contractility of the heart muscles [Reuter und Heeg, Naunyn, Naunyn-Schmiedeberg's Arch. Pharmakol. […] Pharmakol. […] Therefore the experiment is suitable for discovering which substances have the greatest therapeutic range, that is to say, which have the greatest safety margin between the anti-arrhythmic and the negatively inotropically effective dosages. To test the substances, up to 18 and 30 individual experiments were carried out in each case. At least 3 dosages were tested each on 6 auricle preparations and the linear regression functions were calculated[[…] In column II, the […] shown and in column III, the inotropic effect is shown. In column IV, the therapeutic range of the compounds is shown.

[4] = read-out: Ventricular Tachycardia ED25
[5] = read-out: Ventricular Tachycardia ED50
[6] = read-out: Ventricular flutter ED25
[7] = read-out: Ventricular flutter ED50

In the case of C1CCN2CC3CC(CN4CCCCC34)C2C1 (single isomer, unassigned) [Spartein, reference compound], the ED25 [1, 4] is reported as 4.43 mg/kg, the ED50 [1, 5] is reported as 9.55 mg/kg and the “Extrasystoles ED25” value ([1]; intravenous, dose allowing 25% increase in aconitine dose relative to control before extrasystoles, rats) is reported as “+)”. The “Ventricular flutter ED25” value ([1]; intravenous, dose allowing 25% increase in aconitine dose relative to control before ventricular flutter, rats) was “+)”, the “Extrasystoles ED50” value ([1]; intravenous, dose allowing 50% increase in aconitine dose relative to control before extrasystoles, rats) was “+)” and the “Ventricular flutter ED50” value ([1]; intravenous, dose allowing 50% increase in aconitine dose relative to control before ventricular flutter, rats) was “+)”.

For c1ccc(CN(CC2=NCCN2)c2ccccc2)cc1 [Antazolin], the therapeutic range [2] is listed as “narrow therapeutic range”, the “Anti-arrhythmic effect (Refractory period extension) ED25” value (shortened to “Anti-arrhythmic effect”) [3] is listed as 0.164 and the “Inotropic effect (Contraction force lowering) ED25” value [3] is listed as 0.094. The “Therapeutic Breadth (III/II)” value [3] was 0.6.

For CCN(CC)CC(=O)Nc1c(C)cccc1C [Lidocain], the therapeutic range [2] is listed as “narrow therapeutic range”, the “Anti-arrhythmic effect” value [3] is listed as 0.47 and the “Inotropic effect (Contraction force lowering) ED25” value [3] is listed as 0.48. The “Therapeutic Breadth (III/II)” value [3] was 1.0.

Molecule c1ccc(CN2CC3CC(C2)CN(Cc2ccccc2)C3)cc1 [N,N'-dibenzyl-bispidine, N,N'-dibenzylbispidine] has an ED25 ([1]; read-out: Extrasystoles ED25) of 1.06 mg/kg, an ED50 ([1]; read-out: Extrasystoles ED50) of 1.76 mg/kg and an ED25 [1, 4] of 0.87 mg/kg. The ED50 [1, 5] was 1.23 mg/kg, the ED25 [1, 6] was 1.03 mg/kg and the ED50 [1, 7] was 1.48 mg/kg. The “occurrence of heart rhythm disturbances on pre-treatment” value ([1]; rats) was “prevented or at least substantially delayed”, the “Anti-arrhythmic effect” value [3] was 0.034 and the “Inotropic effect (Contraction force lowering) ED25” value [3] was 0.07. For the same molecule, the “Therapeutic Breadth (III/II)” value [3] was 2.0.

In the case of CC(C)N1CC2CC(CN(CCc3ccccc3)C2)C1 [N-isopropyl-N'-β-phenylethyl-bispidine], the ED25 ([1]; read-out: Extrasystoles ED25) is reported as about 1.8 mg/kg, the ED50 ([1]; read-out: Extrasystoles ED50) is reported as about 2.3 mg/kg and the ED25 [1, 4] is reported as 1.41 mg/kg. For the same molecule, the ED50 [1, 5] was 2.13 mg/kg, the ED25 [1, 6] was 1.7 mg/kg and the ED50 [1, 7] was 2.47 mg/kg. For the same molecule, the “occurrence of heart rhythm disturbances on pre-treatment” value ([1]; rats) was “prevented or at least substantially delayed”, the “Anti-arrhythmic effect” value [3] was 0.13 and the “Inotropic effect (Contraction force lowering) ED25” value [3] was 0.26. The “Therapeutic Breadth (III/II)” value [3] was 2.0.

For CCC[N+]12[C@H](O)[C@@H](CC)[C@@H]3C[C@H]1[C@@H]1N(C)c4ccccc4[C@]14C[C@H]2[C@@H]3[C@H]4O [N-n-propylajmalin], the “Anti-arrhythmic effect” value [3] was 0.0037, the “Inotropic effect (Contraction force lowering) ED25” value [3] was 0.0015 and the “Therapeutic Breadth (III/II)” value [3] was 0.4.
